Assay results reported in PMC7563551, “The Cytokine IL-1β and Piperine Complex Surveyed by Experimental and Computational Molecular Biophysics” (Biomolecules, 2020).

Biological target: T1, IL-1β (interleukin-1 beta) (Homo sapiens, UniProt P01584)
T1 construct: gene IL1B; 153 residues, single Trp120 and extinction coefficient 11,460 fit the human mature chain; docking model 1ITB chain A
Assay: Trp120 fluorescence quenching titration, interaction density function with Scatchard plot
Type: binding
Details: read-out: Kb

T1 sequence (P01584 117-269): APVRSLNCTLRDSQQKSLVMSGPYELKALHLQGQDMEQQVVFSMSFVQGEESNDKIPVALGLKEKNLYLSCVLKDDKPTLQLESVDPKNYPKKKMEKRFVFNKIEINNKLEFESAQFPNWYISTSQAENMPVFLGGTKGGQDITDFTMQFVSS

Kd: 6.99 µM
SMILES: O=C(/C=C/C=C/c1ccc2c(c1)OCO2)N1CCCCC1 [piperine]
